The target in the assay is HLA-DR15 (DRB1*1501) (Homo sapiens, UniProt P01903+P01911). In words: biochemical. It is filed as binding.

Here are results for one compound from paper PMC9528225 (Molecular Immunology, 2012).

For `CC(C)C[C@H](NC(=O)[C@H](Cc1ccc(O)cc1)NC(=O)[C@H](C)NC(=O)[C@H](CCCNC(=N)N)NC(=O)[C@H](CC(C)C)NC(=O)[C@H](CCC(N)=O)NC(=O)[C@H](CCC(=O)O)NC(=O)[C@H](C)NC(=O)[C@@H](N)CCC(=O)O)C(=O)N[C@@H](CC(=O)O)C(=O)NCC(=O)N[C@H](C(=O)NCC(=O)N[C@H](C(=O)N[C@@H](CCC(=O)O)C(=O)O)C(C)C)[C@@H](C)O` [A3 152–166], half-maximal inhibition (IC50) was put at 18 nM.
